Reference: PubChem BioAssay (NCI)
Where “and” joins values, the source holds several entries; their conditions need not be identical. Equal values may be shown once.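 Grown in 96-well plates, cells were treated for 48 hours with each compound at five concentrations. Insufficient inhibition: endpoint recorded as highest concentration tested. GI50 marks 50% less growth. At the TGI there is no net growth.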

Key:
Experiment in all cases: growth of human tumour cells (NCI), 48 h
NCI-H226 lung = test system: NCI-H226 lung
NCI-H460 lung = test system: NCI-H460 lung
SNB-75 CNS = test system: SNB-75 CNS
PC-3 prostate = test system: PC-3 prostate
OVCAR-3 ovarian = test system: OVCAR-3 ovarian
HT29 colon = test system: HT29 colon
UO-31 renal = test system: UO-31 renal
OVCAR-5 ovarian = test system: OVCAR-5 ovarian
LOX IMVI melanoma = test system: LOX IMVI melanoma
A549 NSCLC = test system: A549 NSCLC
SR leukemia = test system: SR leukemia
SK-MEL-2 melanoma = test system: SK-MEL-2 melanoma
HCT-15 colon = test system: HCT-15 colon
HOP-62 NSCLC = test system: HOP-62 NSCLC
CCRF-CEM leukemia = test system: CCRF-CEM leukemia
RPMI-8226 leukemia = test system: RPMI-8226 leukemia
IGROV1 ovarian = test system: IGROV1 ovarian
RXF 393 renal = test system: RXF 393 renal
MDA-MB-435 = test system: MDA-MB-435
HOP-92 NSCLC = test system: HOP-92 NSCLC
UACC-257 melanoma = test system: UACC-257 melanoma
U251 CNS = test system: U251 CNS
SN12C renal = test system: SN12C renal
OVCAR-4 ovarian = test system: OVCAR-4 ovarian
SF-539 CNS = test system: SF-539 CNS
KM12 colon = test system: KM12 colon
SK-MEL-5 melanoma = test system: SK-MEL-5 melanoma
SW-620 colon = test system: SW-620 colon
A498 renal = test system: A498 renal
TK-10 renal = test system: TK-10 renal
MALME-3M melanoma = test system: MALME-3M melanoma
SK-MEL-28 melanoma = test system: SK-MEL-28 melanoma
COLO 205 colon = test system: COLO 205 colon
HL-60(TB) leukemia = test system: HL-60(TB) leukemia
EKVX NSCLC = test system: EKVX NSCLC
K-562 leukemia = test system: K-562 leukemia
MOLT-4 leukemia = test system: MOLT-4 leukemia
ACHN renal = test system: ACHN renal
BT-549 breast = test system: BT-549 breast
NCI/ADR-RES ovarian = test system: NCI/ADR-RES ovarian
DU-145 prostate = test system: DU-145 prostate
SNB-19 CNS = test system: SNB-19 CNS
786-0 renal = test system: 786-0 renal
UACC-62 melanoma = test system: UACC-62 melanoma
SF-295 CNS = test system: SF-295 CNS
NCI-H522 lung = test system: NCI-H522 lung
MCF7 breast = test system: MCF7 breast
HCC-2998 colon = test system: HCC-2998 colon
MDA-MB-231 breast = test system: MDA-MB-231 breast
OVCAR-8 ovarian = test system: OVCAR-8 ovarian
SK-OV-3 ovarian = test system: SK-OV-3 ovarian
HCT-116 colon = test system: HCT-116 colon
M14 melanoma = test system: M14 melanoma
T-47D breast = test system: T-47D breast
SF-268 CNS = test system: SF-268 CNS
HS 578T breast = test system: HS 578T breast
NCI-H23 lung = test system: NCI-H23 lung

In the case of CC1=C/C=C/C(=O)O[C@@H]([C@H](C)[C@H](O)[C@@H](C)NC(=O)C(C)C)[C@H](C)/C=C/C(C)=C/[C@H]2C=CCC[C@@]2(C)\C=C\1, the GI50 (NCI-H226 lung) is reported as 2480 nM and 582 nM, the TGI (NCI-H226 lung) is reported as 10000 nM and the GI50 (NCI-H460 lung) is reported as 526 nM and 287 nM. For the same compound, the TGI (NCI-H460 lung) was 26400 nM, the TGI (SNB-75 CNS) was greater than 42300 nM and the GI50 (PC-3 prostate) was 654 nM and 223 nM. For the same compound, the TGI (PC-3 prostate) was 13200 nM, the GI50 (OVCAR-3 ovarian) was 2770 nM and 1770 nM and the TGI (OVCAR-3 ovarian) was 9330 nM. The GI50 (HT29 colon) was 233 nM and 59.5 nM, the TGI (HT29 colon) was 6850 nM and the GI50 (UO-31 renal) was 244 nM and 396 nM. The TGI (UO-31 renal) was 7850 nM, the GI50 (OVCAR-5 ovarian) was 8430 nM and 5430 nM and the TGI (OVCAR-5 ovarian) was 14300 nM. The GI50 (LOX IMVI melanoma) was 47.9 nM and 68.8 nM, the TGI (LOX IMVI melanoma) was 307 nM and 178 nM and the GI50 (A549 NSCLC) was 1830 nM and 328 nM. For the same compound, the TGI (A549 NSCLC) was 13200 nM, the GI50 (SR leukemia) was 410 nM and 191 nM and the TGI (SR leukemia) was 5580 nM. The GI50 (SK-MEL-2 melanoma) was 6980 nM, the TGI (SK-MEL-2 melanoma) was 20400 nM and the GI50 (HCT-15 colon) was 231 nM and 275 nM. For the same compound, the TGI (HCT-15 colon) was 9150 nM, the GI50 (HOP-62 NSCLC) was 2130 nM and 4680 nM and the TGI (HOP-62 NSCLC) was 12500 nM. The GI50 (CCRF-CEM leukemia) was 5170 nM and 2260 nM, the TGI (CCRF-CEM leukemia) was 17600 nM and the GI50 (RPMI-8226 leukemia) was 705 nM and 703 nM. The TGI (RPMI-8226 leukemia) was 12300 nM, the GI50 (IGROV1 ovarian) was 603 nM and 189 nM and the TGI (IGROV1 ovarian) was 10700 nM. The TGI (RXF 393 renal) was 8690 nM, the GI50 (MDA-MB-435) was 33.5 nM and 16.5 nM and the TGI (MDA-MB-435) was 6430 nM. For the same compound, the GI50 (HOP-92 NSCLC) was 59 nM and 54.5 nM, the TGI (HOP-92 NSCLC) was 6500 nM and the TGI (UACC-257 melanoma) was 13300 nM. The GI50 (U251 CNS) was 75.9 nM and 70.2 nM, the TGI (U251 CNS) was 7180 nM and the GI50 (SN12C renal) was 806 nM and 275 nM. It also gave a TGI (SN12C renal) of 8460 nM, a GI50 (OVCAR-4 ovarian) of 6470 nM and a TGI (OVCAR-4 ovarian) of 21900 nM. For the same compound, the GI50 (SF-539 CNS) was 58.6 nM and 58.8 nM, the TGI (SF-539 CNS) was 5300 nM and the GI50 (KM12 colon) was 518 nM and 343 nM. For the same compound, the TGI (KM12 colon) was greater than 42300 nM, the GI50 (SK-MEL-5 melanoma) was 63.4 nM and 20.2 nM and the TGI (SK-MEL-5 melanoma) was 810 nM and 812 nM. For the same compound, the GI50 (SW-620 colon) was 705 nM and 303 nM, the TGI (SW-620 colon) was 8900 nM and the GI50 (A498 renal) was 6030 nM and 5250 nM. The TGI (A498 renal) was 32800 nM, the GI50 (TK-10 renal) was 6120 nM and the TGI (TK-10 renal) was 19000 nM. The GI50 (MALME-3M melanoma) was 2010 nM and 1710 nM, the TGI (MALME-3M melanoma) was 8400 nM and the GI50 (SK-MEL-28 melanoma) was 469 nM and 376 nM. The TGI (SK-MEL-28 melanoma) was 8480 nM, the GI50 (COLO 205 colon) was 322 nM and 189 nM and the TGI (COLO 205 colon) was 7330 nM. The GI50 (HL-60(TB) leukemia) was 744 nM and 747 nM, the TGI (HL-60(TB) leukemia) was 9120 nM and 13700 nM and the GI50 (EKVX NSCLC) was 1650 nM and 3940 nM. For the same compound, the TGI (EKVX NSCLC) was 25100 nM, the GI50 (K-562 leukemia) was 559 nM and 565 nM and the TGI (K-562 leukemia) was 36900 nM. For the same compound, the GI50 (MOLT-4 leukemia) was 8410 nM, the TGI (MOLT-4 leukemia) was 31600 nM and the GI50 (ACHN renal) was 136 nM. For the same compound, the TGI (ACHN renal) was 6980 nM, the GI50 (BT-549 breast) was 836 nM and 1130 nM and the TGI (BT-549 breast) was 16300 nM. For the same compound, the GI50 (NCI/ADR-RES ovarian) was 1430 nM and 879 nM, the TGI (NCI/ADR-RES ovarian) was 27600 nM and the GI50 (DU-145 prostate) was 4640 nM and 652 nM. The TGI (DU-145 prostate) was 8980 nM, the GI50 (SNB-19 CNS) was 2010 nM and 736 nM and the TGI (SNB-19 CNS) was 25900 nM. For the same compound, the GI50 (786-0 renal) was 506 nM and 147 nM, the TGI (786-0 renal) was 8060 nM and the GI50 (UACC-62 melanoma) was 418 nM and 620 nM. The TGI (UACC-62 melanoma) was 8980 nM, the GI50 (SF-295 CNS) was 26.4 nM and the TGI (SF-295 CNS) was 7500 nM. For the same compound, the GI50 (NCI-H522 lung) was 4970 nM and 2060 nM, the TGI (NCI-H522 lung) was 13600 nM and the GI50 (MCF7 breast) was 74.6 nM and 38.2 nM. The TGI (MCF7 breast) was 23700 nM, the GI50 (HCC-2998 colon) was 561 nM and 4670 nM and the TGI (HCC-2998 colon) was 23500 nM. The GI50 (MDA-MB-231 breast) was 18.6 nM, the TGI (MDA-MB-231 breast) was 106 nM and the GI50 (OVCAR-8 ovarian) was 3170 nM and 989 nM. The TGI (OVCAR-8 ovarian) was 34200 nM, the GI50 (SK-OV-3 ovarian) was 3090 nM and 872 nM and the TGI (SK-OV-3 ovarian) was greater than 42300 nM. For the same compound, the GI50 (HCT-116 colon) was 44.6 nM and 23.2 nM, the TGI (HCT-116 colon) was 6300 nM and the GI50 (M14 melanoma) was 37.7 nM and 29.3 nM. The TGI (M14 melanoma) was 216 nM and 125 nM, the GI50 (T-47D breast) was 112 nM and 132 nM and the TGI (T-47D breast) was 36600 nM. The TGI (SF-268 CNS) was 17700 nM, the GI50 (HS 578T breast) was 6730 nM and 1900 nM and the TGI (HS 578T breast) was greater than 42300 nM. For the same compound, the GI50 (NCI-H23 lung) was 1750 nM and 1490 nM and the TGI (NCI-H23 lung) was 15200 nM.
